A word on the IC50: it is the concentration that inhibits the measured activity by half. What is called LD50 is the dose expected to kill half of the subjects tested. A high value points to lower toxicity.

The structures appear in SMILES notation. Converted amounts (≈) assume the structure as drawn. A value given as a limit tells only on which side of the number the result lay.

The first data set in a line: Inhibition of phosphatidylinositol 4-kinase in human A431 cell membrane by liquid scintillation counting. Type of data set: cell-based. As to conditions: a-431.
Consider `O=Cc1cccc(O)c1O`, for which the IC50 came out at 0.45 µg/mL (≈ 3.26 µM).
Compound `Nc1nc2c(c(=O)[nH]1)CC=N2` [7-DEAZAGUANINE] showed an IC50 of 35 µg/mL (≈ 233 µM).
Take `Nc1[nH]cnc2ncnc1-2` [ADENINE]: the IC50 was above 100 µg/mL.
On the same count and under the same terms, to `N=C(N)CCNC(=O)c1c[nH]c2nc(N)nc(O)c12` [ECHIGUANINE A] belongs 0.04 µg/mL (≈ 0.152 µM).
For the compound `NCCCNC(=O)c1c[nH]c2nc(N)nc(O)c12` [ECHIGUANINE B], the IC50 came to 0.11 µg/mL (≈ 0.44 µM).
Take `Nc1nc2[nH]cnc2c(=O)[nH]1` [GUANINE]: the IC50 was above 100 µg/mL.
The compound `O=c1[nH]cnc2nc[nH]c12` [HYPOXANTHINE] showed an IC50 above 100 µg/mL.
In the case of `Nc1nc(=O)[nH]c2nc[nH]c12` [ISOGUANINE], the concentration for half-maximal inhibition (IC50) was above 100 µg/mL.
`O=c1c(-c2ccc(O)c(O)c2)coc2cc(O)cc(O)c12` [OROBOL] showed an IC50 of 0.25 µg/mL (≈ 0.873 µM).
In turn, `O=c1c(O)c(-c2ccc(O)c(O)c2)oc2cc(O)cc(O)c12` [QUERCETIN] had an IC50 of 1.8 µg/mL (≈ 5.96 µM).
Take `N#Cc1cn([C@@H]2O[C@H](CO)[C@@H](O)[C@H]2O)c2ncnc(N)c12` [TOYOCAMYCIN]: the IC50 stood at 3.3 µg/mL (≈ 11.3 µM).

The nature of the next data set: Toxicity in ip dosed mouse. The data set is classed as organism-based. As to conditions: in vivo.
As to `N=C(N)CCNC(=O)c1c[nH]c2nc(N)nc(O)c12` [ECHIGUANINE A], the LD50 is above 100 mg/kg.
Compound `NCCCNC(=O)c1c[nH]c2nc(N)nc(O)c12` [ECHIGUANINE B] showed an LD50 above 100 mg/kg.
